In the assay the test system is c-myc in 22RV-1 cells. Kind of assay: Human c-myc ELISA assay. The following applies: Homo sapiens; for Emax: 22Rv1, 18 h, read-out: Degradation of BRD4: Maximum inhibition (%) c-Myc ELISA in 22RV1 cells; for DC50: 22Rv1, read-out: Degradation of BRD4: DC50 (uM) c-Myc ELISA in 22RV1 cells. Format: cell-based. In short, it runs like this: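 c-myc levels measured by ELISA in RIPA lysates of 22RV-1 cells, calibrated with a 333-0 pg/ml standard curve. Lysates came from cells exposed for 18 h to an 8-point, 1:3 dose series starting at 300 nM or 1 μM final in 0.1% DMSO. Suppression potency given as DC50.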
For orientation: ELISA stands for enzyme-linked immunosorbent assay.

SMILES strings stand for the structures.

What is called DC50 is the concentration giving 50% degradation. Turning to `Cc1ncsc1-c1ccc([C@H](C)NC(=O)[C@@H]2C[C@@H](O)CN2C(=O)[C@@H](NC(=O)CN2CCN(C3CC4(C3)CN(C(=O)C[C@@H]3N=C(c5ccc(Cl)cc5)c5c(sc(C)c5C)-n5c(C)nnc53)C4)[C@@H](C)C2)C(C)(C)C)cc1` [Example 354, (2S,4R)-1-[(2S)-2-{2-[(3S)-4-(2-{2-[(9S)-7-(4-chlorophenyl)-4,5,13-trimethyl-3-thia-1,8,11,12-tetraazatricyclo[8.3.0.0^2,^6]trideca-2(6),4,7,10,12-pentaen-9-yl]acetyl}-2-azaspiro[3.3]heptan-6-yl)-3-methyl-piperazin-1-yl]acetamido}-3,3-dimethylbutanoyl]-4-hydroxy-N-[(1S)-1-[4-(4-methyl-1,3-thiazol-5-yl)phenyl]ethyl]pyrrolidine-2-carboxamide], the Emax is 100% and the DC50 lay within 0.01 to 0.1 µM.
Take `Cc1ncsc1-c1ccc([C@H](C)NC(=O)[C@@H]2C[C@@H](O)CN2C(=O)[C@@H](NC(=O)CN2CCN(C3CC4(C3)CN(C(=O)C[C@@H]3N=C(c5ccc(Cl)cc5)c5c(sc(C)c5C)-n5c(C)nnc53)C4)[C@H](C)C2)C(C)(C)C)cc1` [Example 355]: the Emax was determined as 100% and the 50% degradation concentration (DC50) lay within 0.01 to 0.1 µM.
For `Cc1ncsc1-c1ccc([C@H](C)NC(=O)[C@@H]2C[C@@H](O)CN2C(=O)[C@@H](NC(=O)CN2CCN(C3CC4(C3)CN(C(=O)C[C@@H]3N=C(c5ccc(Cl)cc5)c5c(sc(C)c5C)-n5c(C)nnc53)C4)C[C@H]2C)C(C)(C)C)cc1` [Example 356], in that order: 100% and 0.01 to 0.1 µM.
Consider `Cc1ncsc1-c1ccc([C@H](C)NC(=O)[C@@H]2C[C@@H](O)CN2C(=O)[C@@H](NC(=O)CN2C[C@@H](C)N(C3CC4(C3)CN(C(=O)C[C@@H]3N=C(c5ccc(Cl)cc5)c5c(sc(C)c5C)-n5c(C)nnc53)C4)C[C@@H]2C)C(C)(C)C)cc1` [Example 357, (2S,4R)-1-[(2S)-2-{2-[(2S,5R)-4-(2-{2-[(9S)-7-(4-chlorophenyl)-4,5,13-trimethyl-3-thia-1,8,11,12-tetraazatricyclo[8.3.0.0^2,^6]trideca-2(6),4,7,10,12-pentaen-9-yl]acetyl}-2-azaspiro[3.3]heptan-6-yl)-2,5-dimethylpiperazin-1-yl]acetamido}-3,3-dimethylbutanoyl}-4-hydroxy-N-[(1S)-1-[4-(4-methyl-1,3-thiazol-5-yl)phenyl]ethyl]pyrrolidine-2-carboxamide], for which the Emax came to 100% and the DC50 was in the range of 0.01 to 0.1 µM.
`Cc1ncsc1-c1ccc([C@H](C)NC(=O)[C@@H]2C[C@@H](O)CN2C(=O)[C@@H](NC(=O)CN2CCN(C3CC4(C3)CN(C(=O)C[C@@H]3N=C(c5ccc(Cl)cc5)c5c(sc(C)c5C)-n5c(C)nnc53)C4)C[C@@H]2C)C(C)(C)C)cc1` [Example 358]: the Emax was more than 90% and the DC50 is 0.01 to 0.1 µM.
In the same order, the values of `Cc1ncsc1-c1ccc([C@H](C)NC(=O)[C@@H]2C[C@@H](O)CN2C(=O)[C@@H](NC(=O)CN2C[C@H](C)N(C3CC4(C3)CN(C(=O)C[C@@H]3N=C(c5ccc(Cl)cc5)c5c(sc(C)c5C)-n5c(C)nnc53)C4)C[C@H]2C)C(C)(C)C)cc1` [Example 359] are more than 90% and 0.01 to 0.1 µM.
`Cc1ncsc1-c1ccc([C@H](C)NC(=O)[C@@H]2C[C@@H](O)CN2C(=O)[C@@H](NC(=O)CN2CCN(C3CC4(C3)CN(C(=O)C[C@@H]3N=C(c5ccc(Cl)cc5)c5c(sc(C)c5C)-n5c(C)nnc53)C4)CC2)C(C)(C)C)cc1` [Example 360]: the Emax is more than 90% and the DC50 fell in the range of 0.1 to 1 µM.
For `Cc1cc(C(C(=O)N2C[C@H](O)C[C@H]2C(=O)NCc2ccc(Cl)cc2OCCOCCOCCOCCNC(=O)C[C@@H]2N=C(c3ccc(Cl)cc3)c3c(sc(C)c3C)-n3c(C)nnc32)C(C)C)on1` (stereo partly shown) [Example 361], in that order: 100% and 0.01 to 0.1 µM.

Values taken from patent publication US11554171B2, “Compounds and methods for the targeted degradation of bromodomain-containing proteins” (Arvinas Operations, Inc., priority 2015, dated 2023).
